# Test results from US20060063187A1, “Modulation of XBP-1 activity for treatment of metabolic disorders” (priority 2004, published 2006).
# Experiments:
# IRE-1α−/− fibroblasts = test: ER stress-induced JNK activation and IRS-1 phosphorylation in IRE-1α-deficient fibroblasts; type: cell-based, mouse; details: tunicamycin 10 μg/ml for 1 hour
# Experimental: FIG. 2 depicts that the induction of ER stress impairs insulin action through JNK mediated phosphorylation of IRS-1. (A) ER stress was induced in Fao liver cells by a 3-hour treatment with 5 μg/ml tunicamycin (Tun). Cells were subsequently stimulated with insulin (Ins). IRS-1 tyrosine and serine (Ser307) phosphorylation, Akt phosphorylation (Ser473), insulin receptor (IR) tyrosine phosphorylation, and their total protein levels were examined using either immunoprecipitation (IP) followed by immunoblotting (IB) or direct immunoblotting. (B) Quantitation of IRS-1 (tyrosine and Ser307), Akt (Ser473), and IR (tyrosine) phosphorylation under the experimental conditions described in (A) with normalization to protein levels for each molecule. (C) Inhibition of ER stress-induced (300 nM thapsigargin for 4 hours) Ser307 phosphorylation of IRS-1 by JNK-1 inhibitor, SP600125 (JNKi, 25 μM). (D) Quantitation of IRS-1 Ser307 phosphorylation under conditions described in (C). (E) Reversal of ER stress-induced inhibition of insulin-stimulated tyrosine phosphorylation (pY) of IRS-1 by a JNK inhibitor. (F) Quantitation of insulin-induced IRS-1 tyrosine phosphorylation levels described in (E). (G) JNK activity, Ser307 phosphorylation of IRS-1, and total IRS-1 levels at indicated times following tunicamycin treatment (Tun, 10 μg/ml for I hour) in IRE-1α^+/+ and IRE-1α^−/− fibroblasts. […]
# [1] = test system: mouse embryonic fibroblasts (MEF) without exogenous XBP-1s expression; test: ER stress response in MEF-tet-off fibroblasts without exogenous XBP-1s expression; type: cell-based; details: tunicamycin 2 μg/ml, fibroblasts without exogenous XBP-1s (+Dox)
# Text: FIG. 3 depicts that alteration of the ER stress response by manipulation of XBP-1 levels leads to alterations in insulin receptor signaling. ER stress responses in XBP-1s overexpressing cells, XBP-1^−/− cells, and their controls. (A) Induction of XBP-1s expression upon removal of doxycycline in mouse embryonic fibroblasts (MEF). (B) Southern blot analysis of XBP-1^−/− MEF cells and their WT controls for the wild type (9.4 kb) and targeted (6.5 kb) alleles. (C) PERK phosphorylation (p-PERK) and JNK activity in the XBP-1s overexpressing cells and their control cells (−Dox and +Dox, respectively) upon tunicamycin treatment (Tun, 2 μg/ml). (D) PERK phosphorylation and JNK activity upon low dose tunicamycin treatment (Tun, 0.5 μg/ml) in XBP-1^−/−-MEF cells and their WT controls. (E) IRS-1 Ser307 phosphorylation upon tunicamycin treatment (Tun, 2 μg/ml) in the XBP-1s overexpressingcells and the control cells (−Dox and +Dox, respectively), detected using immunoprecipitation (IP) of IRS-1 followed by immunoblotting (IB) with an IRS-1 phosphoserine 307-specific antibody. […] The ratio of IRS-1 tyrosine phosphorylation to total IRS-1 level was summarized from independent experiments and was presented in the graph. (G) IRS-1 Ser307 phosphorylation upon tunicamycin treatment (Tun, 0.5 μg/ml) in XBP-1^−/− cells and WT controls was detected as described in panel C. […] The ratio of IRS-1 tyrosine phosphorylation to total IRS-1 level was summarized from independent experiments and presented in the graph. All graphs show mean±SEM from at least 2 independent experiments and statistically significance from the controls is indicated by * with p<0.005.
# Overexpression of XBPIs in MEFs: MEF-tet-off cells (Clontech) were cultured in DMEM with 100 μg/ml G418 and 1 μg/ml doxycycline. The MEF-tet-off cells express exogenous tTA (tetracycline-controlled transactivator) protein, which binds to TRE (tetracycline response element) and activates transcription only in the absence of tetracycline or doxycycline. The cDNA of the spliced form of XBP-1 was ligated into pTRE2hyg2 plasmid (Clontech). The MEF-tet-off cells were transfected with the TRE2hyg2-XBP-1s plasmid, followed by selection in the presence of […] hygromycine B. Individual clones of stable transfectants were isolated and doxycycline-dependent XBP-1s expression was confirmed by immunoblotting.
# Protein Extracts From Cells: At the end of each treatment, cells were immediately frozen in liquid nitrogen and kept at −80° C. Protein extracts were prepared with a lysis buffer, containing 25 mM Tris-HCl (pH7.4), 2 mM Na3VO4, 10 mM NaF, 10 mM Na4P2O7, 1 mM EGTA, 1 mM EDTA, 1% NP40, 5 μg/ml leupeptin, 5 μg/ml aprotinin, 10 nM okadaic acid, and 1 mM PMSF. […]
# XBP-1−/− MEF cells = test: ER stress response to low dose tunicamycin in XBP-1−/− MEF cells; type: cell-based, mouse
# Text: (§1) FIG. 3 depicts that alteration of the ER stress response by manipulation of XBP-1 levels leads to alterations in insulin receptor signaling. ER stress responses in XBP-1s overexpressing cells, XBP-1^−/− cells, and their controls. (A) Induction of XBP-1s expression upon removal of doxycycline in mouse embryonic fibroblasts (MEF). (B) Southern blot analysis of XBP-1^−/− MEF cells and their WT controls for the wild type (9.4 kb) and targeted (6.5 kb) alleles. (C) PERK phosphorylation (p-PERK) and JNK activity in the XBP-1s overexpressing cells and their control cells (−Dox and +Dox, respectively) upon tunicamycin treatment (Tun, 2 μg/ml). (D) PERK phosphorylation and JNK activity upon low dose tunicamycin treatment (Tun, 0.5 μg/ml) in XBP-1^−/−-MEF cells and their WT controls. (E) IRS-1 Ser307 phosphorylation upon tunicamycin treatment (Tun, 2 μg/ml) in the XBP-1s overexpressingcells and the control cells (−Dox and +Dox, respectively), detected using immunoprecipitation (IP) of IRS-1 followed by immunoblotting (IB) with an IRS-1 phosphoserine 307-specific antibody. […] The ratio of IRS-1 tyrosine phosphorylation to total IRS-1 level was summarized from independent experiments and was presented in the graph. (G) IRS-1 Ser307 phosphorylation upon tunicamycin treatment (Tun, 0.5 μg/ml) in XBP-1^−/− cells and WT controls was detected as described in panel C. […]
# Fao liver cells = test: ER stress and insulin receptor signaling in Fao liver cells (immunoprecipitation / immunoblotting); type: cell-based, rat; details: for serine (Ser307) phosphorylation of IRS-1: Fao cells treated with ER stress inducer (tunicamycin 5 μg/ml 3 h; thapsigargin 300 nM)
# Experimental: (§2) FIG. 2 depicts that the induction of ER stress impairs insulin action through JNK mediated phosphorylation of IRS-1. (A) ER stress was induced in Fao liver cells by a 3-hour treatment with 5 μg/ml tunicamycin (Tun). Cells were subsequently stimulated with insulin (Ins). IRS-1 tyrosine and serine (Ser307) phosphorylation, Akt phosphorylation (Ser473), insulin receptor (IR) tyrosine phosphorylation, and their total protein levels were examined using either immunoprecipitation (IP) followed by immunoblotting (IB) or direct immunoblotting. (B) Quantitation of IRS-1 (tyrosine and Ser307), Akt (Ser473), and IR (tyrosine) phosphorylation under the experimental conditions described in (A) with normalization to protein levels for each molecule. (C) Inhibition of ER stress-induced (300 nM thapsigargin for 4 hours) Ser307 phosphorylation of IRS-1 by JNK-1 inhibitor, SP600125 (JNKi, 25 μM). (D) Quantitation of IRS-1 Ser307 phosphorylation under conditions described in (C). (E) Reversal of ER stress-induced inhibition of insulin-stimulated tyrosine phosphorylation (pY) of IRS-1 by a JNK inhibitor. (F) Quantitation of insulin-induced IRS-1 tyrosine phosphorylation levels described in (E). (G) JNK activity, Ser307 phosphorylation of IRS-1, and total IRS-1 levels at indicated times following tunicamycin treatment (Tun, 10 μg/ml for I hour) in IRE-1α^+/+ and IRE-1α^−/− fibroblasts. (H) Insulin-stimulated IRS-1 tyrosine phosphorylation and total IRS-1 levels following tunicamycin treatment (Tun, 10 μg/ml for 1 hour) in IRE-1α^+/+ and IRE-1α^−/− fibroblasts. […] All graphs show mean ±SEM from at least 2 independent experiments and statistical significance from the controls is indicated by * with p<0.005.
# FIG. 8 depicts inhibition of insulin receptor signaling by thapsigargin-induced ER stress and the role of Ca^+2 levels in IRS-1 serine phosphorylation. (A) ER stress was induced in Fao cells by 1 hour treatment with 300 nM thapsigargin (Thap), and cells were subsequently stimulated with insulin (Ins). IRS-1 tyrosine phosphorylation (pY) and serine phosphorylation (pSer307), insulin receptor (IR) tyrosine phosphorylation, and total protein levels were examined using either immunoprecipitation (UP) followed by immunoblotting (IB) or direct immunobloting. (B) Fao cells were treated with sulindac sulfide (SS: 0, 7.5, 30, and 60 μM) for 45 minutes with or without an additional hour of exposure to 300 nM thapsigargin (Thap). IRS-1 serine phosphorylation and total IRS-1 protein levels were examined as described above.
# Cells: FaO cells were cultured with RPMI 1640 (Gibco) containing 10% fetal bovine serum (FBS). At 70-80% confluency, cells were serum depleted for 12 hours before starting the experiments. Reagents including tunicamycin, thapsigargin, and JNK inhibitors were gently added to the culture dishes in the incubator to prevent any environmental stress. JNK inhibitors were added 1 hour before tunicamycine/thapsigargin treatment. The XBP-1^−/− MEF cells, IRE-1α^−/− MEF cells (provided by Dr. David Ron (New York University School of Medicine) and their wild type (WT) controls were cultured in Dulbecco's Modified Eagle Medium (DMEM) (Gibco) containing 10% FBS. Experiments in MEF cells were carried out similar to those in FaO cells except after 6 hours of serum depletion.
# Protein Extracts From Cells: At the end of each treatment, cells were immediately frozen in liquid nitrogen and kept at −80° C. Protein extracts were prepared with a lysis buffer, containing 25 mM Tris-HCl (pH7.4), 2 mM Na3VO4, 10 mM NaF, 10 mM Na4P2O7, 1 mM EGTA, 1 mM EDTA, 1% NP40, 5 μg/ml leupeptin, 5 μg/ml aprotinin, 10 nM okadaic acid, and 1 mM PMSF. Immunoprecipitations and immunoblotting experiments were performed with […] and 75 ug total protein, respectively.
# [2] = test system: IRE-1α+/+ (WT) fibroblasts; test: ER stress-induced JNK activation and IRS-1 phosphorylation in wild type fibroblasts; type: cell-based, mouse; details: tunicamycin 10 μg/ml for 1 hour
# Experimental: as §2
# Cells: FaO cells were cultured with RPMI 1640 (Gibco) containing 10% fetal bovine serum (FBS). At 70-80% confluency, cells were serum depleted for 12 hours before starting the experiments. Reagents including tunicamycin, thapsigargin, and JNK inhibitors were gently added to the culture dishes in the incubator to prevent any environmental stress. […]
# WT MEF cells = test: ER stress response to low dose tunicamycin in WT MEF cells; type: cell-based, mouse; details: low dose of tunicamycin 0.5 μg/ml
# Text: as §1
compound,measurement,setting,value
tunicamycin,insulin-stimulated tyrosine phosphorylation of IRS-1,"IRE-1α−/− fibroblasts; IRE-1α−/− cells, then insulin",no such effect was detected
same,phosphorylation of IRS-1 at Ser307,IRE-1α−/− fibroblasts; IRE-1α−/− fibroblasts,not
same,JNK activation,[1],rapid and robust activation
same,PERK phosphorylation,[1],strong
same,peak of PERK phosphorylation,[1],3 to 4 h
same,start of PERK phosphorylation,[1],30 min
same,"ER stress response (PERK phosphorylation, JNK activation)","XBP-1−/− MEF cells; low dose of tunicamycin 0.5 μg/ml, XBP-1−/− MEFs",strong ER stress response
same,IRS-1 serine (Ser307) phosphorylation,"XBP-1−/− MEF cells; tunicamycin 0.5 μg/ml, XBP-1−/− MEFs compared with XBP-1+/+ controls",strongly induced
same,insulin-stimulated tyrosine phosphorylation of IRS-1,"Fao liver cells; Fao cells pretreated with ER stress inducer (tunicamycin 5 μg/ml 3 h; thapsigargin 300 nM 1 h), then insulin",significantly decreased
same,serine (Ser307) phosphorylation of IRS-1,Fao liver cells,significant increase
same,insulin-induced Akt phosphorylation (Ser473),"Fao liver cells; Fao cells, tunicamycin pretreatment 5 μg/ml 3 h, then insulin",suppressed
same,insulin-stimulated tyrosine phosphorylation of IRS-1,"[2]; WT cells, then insulin",inhibited
same,JNK activation,[2]; WT fibroblasts,strong activation
same,phosphorylation of IRS-1 at Ser307,[2]; WT fibroblasts,stimulated
same,"ER stress (PERK phosphorylation, JNK activation)",WT MEF cells,failed to stimulate significant ER stress
CSc1ccc(/C=C2/C(C)=C(CC(=O)O)c3cc(F)ccc32)cc1 [sulindac sulfide],thapsigargin-induced IRS-1 serine phosphorylation,"Fao liver cells; sulindac sulfide 45 minutes, then additional hour of 300 nM thapsigargin",did not interfere
same,Ser307 phosphorylation of IRS-1,"Fao liver cells; sulindac sulfide alone (0, 7.5, 30, 60 μM, 45 minutes)",no effect
C/C=C(/C)C(=O)O[C@H]1C(C)=C2[C@H]([C@@H]1OC(=O)CCCCCCC)[C@@](C)(OC(C)=O)C[C@H](OC(=O)CCC)[C@@]1(O)[C@H]2OC(=O)[C@@]1(C)O [thapsigargin],serine (Ser307) phosphorylation of IRS-1,Fao liver cells,increased
same,insulin receptor signaling,"Fao liver cells; Fao cells, thapsigargin 300 nM 1 h, then insulin",suppressed
